Laboratory results taken from ChEMBL document CHEMBL5608163, “Structure modification of anoplin for fighting resistant bacteria” (Eur J Med Chem, 2024).
In brackets after ≈: the same amount, converted by molar mass. Peptide text beside a SMILES is read from it. * marks the point of attachment. Heptadecanoyl = CCCCCCCCCCCCCCCCC(=O)*; Undecanoyl = CCCCCCCCCCC(=O)*; Nonanoyl = CCCCCCCCC(=O)*

Tests used:
Staphylococcus aureus [1] = assay: Antibacterial activity against Staphylococcus aureus ATCC 25923 assessed as reduction in bacterial growth incubated for 48 hrs by Mueller-Hinton broth based microdilution method; assay type: functional
Escherichia coli [2] = assay: Antibacterial activity against Escherichia coli ATCC 25922 assessed as reduction in bacterial growth incubated for 48 hrs by Mueller-Hinton broth based microdilution method; assay type: functional
[3] = Hemolytic activity in human erythrocyte incubated for 1 hr; assay type: toxicity, cell-based; settings: erythrocytes
[4] = Hemolytic activity against Red blood cells (unknown origin) incubated for 1 hr by spectrophotometric analysis; assay type: toxicity, cell-based, Erythrocyte
Staphylococcus aureus [5] = assay: Antibacterial activity against Staphylococcus aureus assessed as bacterial growth inhibition incubated for 20 hrs by broth microdilution assay; assay type: functional
Bacillus subtilis [6] = assay: Antibacterial activity against Bacillus subtilis assessed as reduction in bacterial growth incubated for 20 hrs by broth microdilution assay; assay type: functional
Escherichia coli [7] = assay: Antibacterial activity against Escherichia coli assessed as reduction in bacterial growth incubated for 20 hrs by broth microdilution assay; assay type: functional
Pseudomonas aeruginosa [8] = assay: Antibacterial activity against Pseudomonas aeruginosa assessed as reduction in bacterial growth incubated for 20 hrs by broth microdilution assay; assay type: functional
[9] = tested on: Mycolicibacterium smegmatis; assay: Antimycobacterial activity against Mycobacterium smegmatis mc2 155 assessed as reduction in bacterial cell growth incubated for 48 hrs by resazurin dye based assay; assay type: functional
Bacillus subtilis [10] = assay: Antibacterial activity against Bacillus subtilis assessed as reduction in bacterial growth; assay type: functional
Escherichia coli [11] = assay: Antibacterial activity against Escherichia coli DH5a assessed as reduction in bacterial growth; assay type: functional
Pseudomonas aeruginosa [12] = assay: Antibacterial activity against Pseudomonas aeruginosa PAO1 assessed as reduction in bacterial growth; assay type: functional
Zymomonas mobilis [13] = assay: Antibacterial activity against Zymomonas mobilis ATCC 10988 assessed as reduction in bacterial growth; assay type: functional
[14] = Hemolytic activity in human erythrocytes; assay type: toxicity, cell-based, Erythrocyte
[15] = tested on: Mycolicibacterium smegmatis; assay: Antibacterial activity against Mycobacterium smegmatis mc2 155 assessed as bacterial growth inhibition; assay type: functional
Bacillus subtilis [16] = assay: Antibacterial activity against Bacillus subtilis assessed as bacterial growth inhibition; assay type: functional
Pseudomonas aeruginosa [17] = assay: Antibacterial activity against Pseudomonas aeruginosa PAO1 assessed as bacterial growth inhibition; assay type: functional
Escherichia coli [18] = assay: Antibacterial activity against Escherichia coli DH5a assessed as bacterial growth inhibition; assay type: functional
Zymomonas mobilis [19] = assay: Antibacterial activity against Zymomonas mobilis ATCC 10988 assessed as bacterial growth inhibition; assay type: functional
[20] = Hemolytic activity in human erythrocytes measured after 1 hrs by microplate reader analysis; assay type: toxicity, cell-based, Erythrocyte

Row | Structure (SMILES) | MIC (Staphylococcus aureus [1]) | MIC (Escherichia coli [2]) | HC50 at 1 h [3] | HC50 at 1 h [4] | MIC (Staphylococcus aureus [5]) | MIC (Bacillus subtilis [6]) | MIC (Escherichia coli [7]) | MIC (Pseudomonas aeruginosa [8]) | MIC [9] | MIC (Bacillus subtilis [10]) | MIC (Escherichia coli [11]) | MIC (Pseudomonas aeruginosa [12]) | MIC (Zymomonas mobilis [13]) | HC50 [14] | other results
1 | CCCCCCCCCCCCCCCCC(=O)NCC(=O)N[C@@H](CC(C)C)C(=O)N[C@@H](CC(C)C)C(=O)N[C@@H](CCCCN)C(=O)N[C@@H](CCCNC(=N)N)C(=O)N[C@H](C(=O)N[C@@H](CCCCN)C(N)=O)[C@@H](C)CC (Heptadecanoyl-GLLKRIK-NH2) | 0.76 µM (≈ 0.82 µg/mL) | 1.53 µM (≈ 1.65 µg/mL) | 35.4 µM | – | – | – | – | – | – | – | – | – | – | – | –
2 | CC[C@H](C)[C@H](NC(=O)CCCCCNC(=O)[C@H](CC(C)C)NC(=O)[C@H](CC(C)C)NC(=O)[C@@H](NC(=O)[C@H](CCCCN)NC(=O)[C@@H](NC(=O)[C@H](CCCNC(=N)N)NC(=O)[C@H](CCCCN)NC(=O)[C@H](CC(C)C)NC(=O)[C@H](CC(C)C)NC(=O)CN)[C@@H](C)CC)[C@@H](C)O)C(=O)N[C@@H](CC(N)=O)C(=O)N[C@@H](CC(C)C)C(=O)N[C@@H](CCCCN)C(=O)N[C@@H](C)C(=O)N[C@@H](CC(C)C)C(=O)N[C@@H](C)C(=O)N[C@@H](C)C(=O)N[C@@H](CC(C)C)C(=O)N[C@@H](C)C(=O)N[C@@H](CCCCN)C(=O)N[C@@H](CCCCN)C(=O)N[C@H](C(=O)N[C@@H](CC(C)C)C(N)=O)[C@@H](C)CC | – | – | – | 60.2 µM | 4 µM (≈ 10.9 µg/mL) | 2 µM (≈ 5.46 µg/mL) | 2 µM (≈ 5.46 µg/mL) | 2 µM (≈ 5.46 µg/mL) | – | – | – | – | – | – | –
3 | CCCCCCCCCCCCCCCCC(=O)NCC(=O)N[C@@H](CC(C)C)C(=O)N[C@@H](CC(C)C)C(=O)N[C@@H](CCCCN)C(=O)N[C@@H](CCCNC(=N)N)C(N)=O (Heptadecanoyl-GLLKR-NH2) | 3.94 µM (≈ 3.3 µg/mL) | 7.88 µM (≈ 6.6 µg/mL) | 80.2 µM | – | – | – | – | – | – | – | – | – | – | – | –
4 | CC[C@H](C)[C@H](NC(=O)[C@H](CCCCN)NC(=O)[C@H](CCCCN)NC(=O)[C@H](C)NC(=O)[C@H](CC(C)C)NC(=O)[C@H](C)NC(=O)[C@H](C)NC(=O)[C@H](CC(C)C)NC(=O)[C@H](C)NC(=O)[C@H](CCCCN)NC(=O)[C@H](CC(C)C)NC(=O)[C@H](CC(N)=O)NC(=O)[C@@H](NC(=O)[C@@H]1CCCN1C(=O)[C@H](CC(C)C)NC(=O)[C@H](CC(C)C)NC(=O)[C@@H](NC(=O)[C@H](CCCCN)NC(=O)[C@@H](NC(=O)[C@H](CCCNC(=N)N)NC(=O)[C@H](CCCCN)NC(=O)[C@H](CC(C)C)NC(=O)[C@H](CC(C)C)NC(=O)CN)[C@@H](C)CC)[C@@H](C)O)[C@@H](C)CC)C(=O)N[C@@H](CC(C)C)C(N)=O (H-GLLKRIKTLLPINLKALAALAKKIL-NH2) | – | – | – | 83.8 µM | 4 µM (≈ 10.9 µg/mL) | 2 µM (≈ 5.43 µg/mL) | 2 µM (≈ 5.43 µg/mL) | 2 µM (≈ 5.43 µg/mL) | – | – | – | – | – | – | –
5 | CCCCCCCCCCC(=O)NCC(=O)N[C@@H](CC(C)C)C(=O)N[C@@H](CC(C)C)C(=O)N[C@@H](CCCCN)C(=O)N[C@@H](Cc1ccccc1)C(=O)N[C@H](C(=O)N[C@@H](CCCCN)C(=O)N[C@@H](CCCCN)C(=O)N[C@@H](CC(C)C)C(=O)N[C@@H](CC(C)C)C(N)=O)[C@@H](C)CC (Undecanoyl-GLLKFIKKLL-NH2) | – | – | – | – | – | – | – | – | 3.77 µM (≈ 5.05 µg/mL) | 8 µM (≈ 10.7 µg/mL) | 22.6 µM (≈ 30.3 µg/mL) | 3.77 µM (≈ 5.05 µg/mL) | 3.77 µM (≈ 5.05 µg/mL) | < 377 µM | MIC [15]: > 168 µM; MIC (Bacillus subtilis [16]): > 170 µM; MIC (Pseudomonas aeruginosa [17]): 33.9 µM (≈ 45.4 µg/mL); MIC (Escherichia coli [18]): > 170 µM; MIC (Zymomonas mobilis [19]): 12.7 µM (≈ 17 µg/mL); HC50 at 1 h [20]: 148 µM
6 | CCCCCCCCC(=O)NCC(=O)N[C@@H](CC(C)C)C(=O)N[C@@H](CC(C)C)C(=O)N[C@@H](CCCCN)C(=O)N[C@@H](Cc1ccccc1)C(=O)N[C@H](C(=O)N[C@@H](CCCCN)C(=O)N[C@@H](CCCCN)C(=O)N[C@@H](CC(C)C)C(=O)N[C@@H](CC(C)C)C(N)=O)[C@@H](C)CC (Nonanoyl-GLLKFIKKLL-NH2) | – | – | – | – | – | – | – | – | 3.86 µM (≈ 5.06 µg/mL) | 8 µM (≈ 10.5 µg/mL) | 23.1 µM (≈ 30.3 µg/mL) | 3.86 µM (≈ 5.06 µg/mL) | 3.86 µM (≈ 5.06 µg/mL) | < 386 µM | –
